This is an account of results in US20190078143A1, “METHOD FOR TREATING NEURODEVELOPMENTAL DISORDERS” (New York University, priority 2017, published 2019).

For assay [1], the system named is segmented filamentous bacteria (SFB). The assay is described as follows: 16S rRNA qPCR of SFB levels in mouse fecal samples. Type of assay: in vivo. To be noted: B6 mice before/after vancomycin treatment. As for the experimental part: (§1) For co-housing experiments, age-matched SFB-absent mice (from Jackson Laboratory) were co-housed with SFB-present mice (from Taconic Biosciences) in sterilized cages for two weeks at a ratio of 2:3, with unrestricted access to food and water. For SFB-gavaging experiments, four fecal pellets of SFB mono-colonized mice (provided by Dan Littman) were dissolved in 20 ml sterile PBS and filtered through a 100 μm cell strainer. 200 μl of fecal suspensions were gavaged via oral route to 4 week-old female Jackson mice. Control mice were gavaged with PBS. The SFB colonization was tested on day 7 following co-housing or SFB-gavaging. For ablation of intestinal bacteria, Taconic-derived female mice were orally gavaged with vancomycin hydrochloride (Fisher) (2.5 mg/kg) every two days, starting 7 days prior to breeding. Mouse fecal pellets were collected and stored at −80° C. before and after vancomycin treatments.
Bacterial genomic DNA was isolated from the fecal pellets of mice with phenol-chloroform extraction. qPCR was performed to quantify relative abundance of SFB, human commensal bacteria or total bacteria using group specific 16S rDNA primers (Table 3, FIG. 16). Undetected qPCR values from non-colonized samples were replaced with a Ct value of 40 for the purpose of comparison.
For orientation: Real-time PCR tracks product formation cycle by cycle.

In assay [2] the test system is Th17 cells in the small intestine. The assay is described as follows: Flow cytometry of ileal CD4+ T cells for IL-17a and RORγt in poly(I:C)-treated dams. Type of assay: in vivo, mouse. To be noted: poly(I:C)-injected pregnant dams, E14.5, compared to control group. As for the experimental part: as §1
For mononuclear cell isolations, both mesenteric fat tissues and Peyer's patches were carefully removed from intestinal tissues. […]
Mononuclear cells were incubated with or without 50 ng/ml phorbol myristate acetate (PMA) (Sigma) and 500 ng/ml ionomycin (Sigma) in the presence of GolgiStop (BD) in complete T cell media at 37° C. for 5 h. […] All data were re-analyzed using FlowJo (Tree Star).
In general terms: A flow cytometer gives signals particle by particle.

Assay [3] relates to IL-17a. As to the kind of experiment: Maternal plasma IL-17a ELISA after poly(I:C) at E12.5. Type of assay: in vivo, mouse. As to conditions: poly(I:C)-injected pregnant dams, 48 hrs after poly(I:C) at E12.5, compared to control group. The method, then: (§2) Mice were mated overnight and females were checked daily for the presence of seminal plugs, noted as embryonic day 0.5. On E12.5, pregnant female mice were weighed and injected with a single dose (20 mg/kg; i.p.) of poly(I:C) (Sigma Aldrich) or PBS vehicle. Each dam was returned to its cage and left undisturbed until the birth of its litter. All pups remained with the mother until weaning on postnatal day 21-28 (P21-P28), at which time mice were group housed at a maximum of 5 per cage with same-sex littermates.
as §1, with “For ablation of intestinal bacteria, Taconic-derived female mice were orally gavaged with vancomycin hydrochloride (Fisher) (2.5 mg/kg) every two days, starting 7 days prior to breeding. Mouse fecal pellets were collected and stored at −80° C. before and after vancomycin treatments.” left out
IL-17a, TNF-α, IFN-β, IL-1β and IL-23 levels were measured according to the manufacturer's protocol (BioLegend). IL-6 and IFN-γ levels were measured according to the manufacturer's protocol (eBioscience).
(In general: An ELISA detects its analyte on a solid surface through an enzyme-linked reagent.)

The subject of assay [4] is cortical patches (SATB2) in primary somatosensory cortex. As to the kind of experiment: Cortical patches by SATB2 immunohistochemistry in adult MIA offspring brains. Type of assay: in vivo, mouse. As to conditions: offspring of poly(I:C)-injected mothers pre-treated with vancomycin. As for the experimental part: as §2
For co-housing experiments, age-matched SFB-absent mice (from Jackson Laboratory) were co-housed with SFB-present mice (from Taconic Biosciences) in sterilized cages for two weeks at a ratio of 2:3, with unrestricted access to food and water. For SFB-gavaging experiments, four fecal pellets of SFB mono-colonized mice (provided by Dan Littman) were dissolved in 20 ml sterile PBS and filtered through a 100 μm cell strainer. […]
Adult male mice were perfused and fixed with 4% paraformaldehyde in PBS for overnight at 4° C. […] The cortical malformation images were analyzed using Image J software. […]
Cortical patches were identified as cortical regions devoid of SATB2 expression. The size of the cortical patches in the S1 was calculated using Zen software (Carl Zeiss). […] SATB2 positive cells were quantified manually.

Assay [5] concerns segmented filamentous bacteria (SFB). To be noted: commensal bacteria in laboratory mice, general statement; cited from earlier work.
The test system of assay [6] is MIA offspring. As to the kind of experiment: Behavioral assays (USV, marble burying, open field, three-chamber sociability) in offspring of poly(I:C)-injected dams. The format is in vivo, mouse. As to conditions: poly(I:C)-injected mothers pre-treated with vancomycin, oral gavage every two days from 7 days before breeding. The method, then:
Mice were mated overnight and females were checked daily for the presence of seminal plugs, noted as embryonic day 0.5. On E12.5, pregnant female mice were weighed and injected with a single dose (20 mg/kg; i.p.) of poly(I:C) (Sigma Aldrich) or PBS vehicle. Each dam was returned to its cage and left undisturbed until the birth of its litter. All pups remained with the mother until weaning on postnatal day 21-28 (P21-P28), at which time mice were group housed at a maximum of 5 per cage with same-sex littermates. […]
On P9, both male and female offspring mice were removed from the nest and habituated to the testing room for 30 min. […] Ultrasonic vocalizations (USVs) were detected for 3 min using an UltraSoundGateCM16/CMPA microphone (AviSoft) in the sound attenuation chamber under stable temperature and light control, and recorded with SAS Prolab software (AviSoft). USVs were measured between 33-125 kHz using Ultravox software (Noldus Information Technology, USA). Due to the unreliability of automated USV scoring, all pup USV calls were counted manually and plotted on the y-axis. […]
8-12-week-old male mice were tested for social behavior using the three-chamber social approach paradigm. […] Experimental mice were given 10 min to explore both chambers and measured for approach behavior as interaction time (i.e. sniffing, approach) with targets in each chamber (within 2 cm). […]

Entries after “also recorded” stand apart in the source; their conditions may differ.

For the compound `CN[C@H](CC(C)C)C(=O)N[C@H]1C(=O)N[C@@H](CC(N)=O)C(=O)N[C@H]2C(=O)N[C@H]3C(=O)N[C@H](C(=O)N[C@H](C(=O)O)c4cc(O)cc(O)c4-c4cc3ccc4O)[C@H](O)c3ccc(c(Cl)c3)Oc3cc2cc(c3O[C@@H]2O[C@H](CO)[C@@H](O)[C@H](O)[C@H]2O[C@H]2C[C@](C)(N)[C@H](O)[C@H](C)O2)Oc2ccc(cc2Cl)[C@H]1O` [vancomycin], the “intestinal colonization by SFB (qPCR of fecal samples)” value in assay [1] is given as “severely reduced”. The “proportion of Th17 cells in the small intestine” value in assay [2] was “decrease in the proportion of Th17 cells”. Moreover, the “levels of IL-17a in the maternal plasma” value in assay [3] is listed as “reduction in the levels of IL-17a”. Further, the “cortical patches in adult offspring” value in assay [4] was “failed to develop cortical patches”. In addition, the “susceptibility of SFB to vancomycin” value in assay [5] is “susceptible”. Further, in assay [6], the “development of behavioral abnormalities in MIA offspring (USV, marble burying, open field center time, % interaction)” value was “prevented induction of behavioral abnormalities; also recorded: prevented development of all four behavioral abnormalities”.
